The format of test [1] is in vivo, NIH/Swiss mice. Conditions: 80 nmol/kg, AUC240.
Description: (§1) In FIG. 3A, bars represent mean±sd, n=6-10. […] Gavage (1.5 g/kg) was given at t=0, Sample was taken at t=30 min. […] In FIG. 3B, points represent mean±sem, n=8-15.
Points represent mean±sem.
Test [2] is classed as in vivo, NIH/Swiss mice.
Description: as §1
Peptide was injected IP at t=−5 minutes into 4-hour fasted NIH/Swiss female mice. […] In FIG. 17 points represent mean+/−sem. […] Samples were taken at t=60, t=120 and t=180.

The structures appear in SMILES notation. Like-named read-outs stand apart in the source and are kept apart here.

Regarding `CC[C@H](C)[C@H](NC(=O)[C@H](CO)NC(=O)[C@H](Cc1ccc(O)cc1)NC(=O)[C@H](CC(=O)O)NC(=O)[C@H](CO)NC(=O)[C@@H](NC(=O)[C@H](Cc1ccccc1)NC(=O)[C@@H](NC(=O)CNC(=O)[C@H](CCC(=O)O)NC(=O)[C@@H](C)NC(=O)[C@@H](N)Cc1ccc(O)cc1)[C@@H](C)O)[C@@H](C)CC)C(=O)N[C@@H](C)C(=O)N[C@@H](CCSC)C(=O)N[C@@H](CC(=O)O)C(=O)N[C@@H](CCCCN)C(=O)N[C@H](C(=O)N[C@@H](Cc1c[nH]cn1)C(=O)N[C@@H](CCC(N)=O)C(=O)N[C@@H](CCC(N)=O)C(=O)N[C@@H](CC(=O)O)C(=O)N[C@@H](Cc1ccccc1)C(=O)N[C@H](C(=O)N[C@@H](CC(N)=O)C(=O)N[C@@H](Cc1c[nH]c2ccccc12)C(=O)N[C@@H](CC(C)C)C(=O)N[C@@H](CC(C)C)C(=O)N[C@@H](C)C(=O)N[C@@H](CCC(N)=O)C(=O)N[C@@H](CCCCN)C(=O)N1CCC[C@H]1C(=O)N[C@@H](CCCCN)C(=O)N[C@@H](CCCCN)C(=O)N[C@H](C(=O)N[C@@H](CCCNC(=N)N)C(=O)N[C@@H](C)C(=O)N[C@@H](CO)C(N)=O)[C@@H](C)CC)C(C)C)[C@@H](C)CC` [Compound 0601GIP4818], in test [1], the “Basal Gluc. Low. 80 nmol/Kg” value is recorded as −9%,. For the same compound, the “OGTT/GL (%)” value in test [2] (30 nmol/kg) was −23, %.

As to `CC[C@H](C)[C@H](NC(=O)[C@H](CO)NC(=O)[C@H](Cc1ccc(O)cc1)NC(=O)[C@H](CC(=O)O)NC(=O)[C@H](CO)NC(=O)[C@@H](NC(=O)[C@H](Cc1ccccc1)NC(=O)[C@@H](NC(=O)CNC(=O)[C@H](CC(=O)O)NC(=O)[C@H](CO)NC(=O)[C@@H](N)Cc1ccc(O)cc1)[C@@H](C)O)[C@@H](C)CC)C(=O)N[C@@H](C)C(=O)N[C@@H](CCSC)C(=O)N[C@@H](CC(=O)O)C(=O)N[C@@H](CCCCN)C(=O)N[C@H](C(=O)N[C@@H](Cc1c[nH]cn1)C(=O)N[C@@H](CCC(N)=O)C(=O)N[C@@H](CCC(N)=O)C(=O)N[C@@H](CC(=O)O)C(=O)N[C@@H](Cc1ccccc1)C(=O)N[C@H](C(=O)N[C@@H](CC(N)=O)C(=O)N[C@@H](Cc1c[nH]c2ccccc12)C(=O)N[C@@H](CC(C)C)C(=O)N[C@@H](CC(C)C)C(=O)N[C@@H](C)C(=O)N[C@@H](CCC(N)=O)C(=O)N[C@@H](CCCCN)C(=O)NCCC(=O)N1CCC[C@H]1C(=O)N[C@@H](CO)C(=O)N[C@@H](CO)C(=O)NCC(=O)N[C@@H](C)C(=O)N1CCC[C@H]1C(=O)N1CCC[C@H]1C(=O)N1CCC[C@H]1C(=O)N[C@@H](CO)C(N)=O)C(C)C)[C@@H](C)CC` [Compound 0601GIP4395], in test [1], the “Basal Glucose Lowering at Peptide Conc. of 80 nmol/kg” value (from here on “Basal Glucose Lowering”) is reported as −0%, AUC240. Further, in test [2] (30 nmol/kg), the “OGTT/GL (%)” value is −11, 30%.

Consider `CC[C@H](C)[C@H](NC(=O)[C@H](CO)NC(=O)[C@H](Cc1ccc(O)cc1)NC(=O)[C@H](CC(=O)O)NC(=O)[C@H](CO)NC(=O)[C@@H](NC(=O)[C@H](Cc1ccccc1)NC(=O)[C@@H](NC(=O)CNC(=O)[C@H](CCC(=O)O)NC(=O)[C@@H](C)NC(=O)[C@@H](N)Cc1ccc(O)cc1)[C@@H](C)O)[C@@H](C)CC)C(=O)N[C@@H](C)C(=O)N[C@@H](CCSC)C(=O)N[C@@H](CC(=O)O)C(=O)N[C@@H](CCCCN)C(=O)N[C@H](C(=O)N[C@@H](Cc1c[nH]cn1)C(=O)N[C@@H](CCC(N)=O)C(=O)N[C@@H](CCC(N)=O)C(=O)N[C@@H](CC(=O)O)C(=O)N[C@@H](Cc1ccccc1)C(=O)N[C@H](C(=O)N[C@@H](CC(N)=O)C(=O)N[C@@H](Cc1c[nH]c2ccccc12)C(=O)N[C@@H](CC(C)C)C(=O)N[C@@H](CC(C)C)C(=O)N[C@@H](C)C(=O)N[C@@H](CCC(N)=O)C(=O)N[C@@H](CCCCN)C(=O)N1CCC[C@H]1C(=O)N[C@@H](CCCCN)C(=O)N[C@@H](CC(C)C)C(=O)N[C@H](C(=O)N[C@@H](CCCCN)C(=O)N[C@@H](CC(C)C)C(=O)N[C@H](C(=O)N[C@@H](CCCCN)C(=O)N[C@@H](CO)C(N)=O)[C@@H](C)CC)[C@@H](C)CC)C(C)C)[C@@H](C)CC` [0601GIP4346], for which the “Basal Glucose Lowering” value in test [1] was −10%, AUC240. Besides, the “OGTT/GL (%)” value in test [2] (30 nmol/kg) is recorded as −20, 30%.

For `CC[C@H](C)[C@H](NC(=O)[C@H](CO)NC(=O)[C@H](Cc1ccc(O)cc1)NC(=O)[C@H](CC(=O)O)NC(=O)[C@H](CO)NC(=O)[C@@H](NC(=O)[C@H](Cc1ccccc1)NC(=O)[C@@H](NC(=O)CNC(=O)[C@H](CCC(=O)O)NC(=O)[C@@H](C)NC(=O)[C@@H](N)Cc1ccc(O)cc1)[C@@H](C)O)[C@@H](C)CC)C(=O)N[C@@H](C)C(=O)N[C@@H](CCSC)C(=O)N[C@@H](CC(=O)O)C(=O)N[C@@H](CCCCN)C(=O)N[C@H](C(=O)N[C@@H](Cc1c[nH]cn1)C(=O)N[C@@H](CCC(N)=O)C(=O)N[C@@H](CCC(N)=O)C(=O)N[C@@H](CC(=O)O)C(=O)N[C@@H](Cc1ccccc1)C(=O)N[C@H](C(=O)N[C@@H](CC(N)=O)C(=O)N[C@@H](Cc1c[nH]c2ccccc12)C(=O)N[C@@H](CC(C)C)C(=O)N[C@@H](CC(C)C)C(=O)N[C@@H](C)C(=O)N[C@@H](CCC(N)=O)C(=O)N[C@@H](CCCCN)C(=O)N1CCC[C@H]1C(=O)N[C@@H](CO)C(=O)N[C@@H](CO)C(=O)NCC(=O)N[C@@H](C)C(=O)N1CCC[C@H]1C(=O)NCC(=O)N1CCC[C@H]1C(=O)N[C@@H](CO)C(N)=O)C(C)C)[C@@H](C)CC` [Compound 0601GIP4952], the “Basal Glucose Lowering” value in test [1] was −1, %. Moreover, the “OGTT/GL (%)” value in test [2] (30 nmol/kg) is recorded as −21, %.

On to `CC[C@H](C)[C@H](NC(=O)[C@H](CO)NC(=O)[C@H](Cc1ccc(O)cc1)NC(=O)[C@H](CC(=O)O)NC(=O)[C@H](CO)NC(=O)[C@@H](NC(=O)[C@H](Cc1ccccc1)NC(=O)[C@@H](NC(=O)CNC(=O)[C@H](CCC(=O)O)NC(=O)[C@@H](C)NC(=O)[C@@H](N)Cc1ccc(O)cc1)[C@@H](C)O)[C@@H](C)CC)C(=O)N[C@@H](C)C(=O)N[C@@H](CCSC)C(=O)N[C@@H](CC(=O)O)C(=O)N[C@@H](CCCCN)C(=O)N[C@H](C(=O)N[C@@H](Cc1c[nH]cn1)C(=O)N[C@@H](CCC(N)=O)C(=O)N[C@@H](CCC(N)=O)C(=O)N[C@@H](CC(=O)O)C(=O)N[C@@H](Cc1ccccc1)C(=O)N[C@H](C(=O)N[C@@H](CCC(N)=O)C(=O)N[C@@H](Cc1c[nH]c2ccccc12)C(=O)N[C@@H](CC(C)C)C(=O)N[C@@H](CC(C)C)C(=O)N[C@@H](C)C(=O)N[C@@H](CCC(N)=O)C(=O)N[C@@H](CCCCN)C(=O)N1CCC[C@H]1C(=O)N[C@@H](CO)C(=O)N[C@@H](CO)C(=O)NCC(=O)N[C@@H](C)C(=O)N1CCC[C@H]1C(=O)N1CCC[C@H]1C(=O)N1CCC[C@H]1C(=O)N[C@@H](CO)C(N)=O)C(C)C)[C@@H](C)CC` [Compound 0601GIP4846], for which, in test [1], the “Basal Glucose Lowering” value was −6%,. Moreover, in test [2] (30 nmol/kg), the “OGTT/GL (%)” value was −25, %.

`CC[C@H](C)[C@H](NC(=O)[C@H](CO)NC(=O)[C@H](Cc1ccc(O)cc1)NC(=O)[C@H](CC(=O)O)NC(=O)[C@H](CO)NC(=O)[C@@H](NC(=O)[C@H](Cc1ccccc1)NC(=O)[C@@H](NC(=O)CNC(=O)[C@H](CCC(=O)O)NC(=O)[C@@H](C)NC(=O)[C@@H](N)Cc1ccc(O)cc1)[C@@H](C)O)[C@@H](C)CC)C(=O)N[C@@H](C)C(=O)N[C@@H](CCSC)C(=O)N[C@@H](CC(=O)O)C(=O)N[C@@H](CCCCN)C(=O)N[C@H](C(=O)N[C@@H](Cc1c[nH]cn1)C(=O)N[C@@H](CCC(N)=O)C(=O)N[C@@H](CCC(N)=O)C(=O)N[C@@H](CC(=O)O)C(=O)N[C@@H](Cc1ccccc1)C(=O)N[C@H](C(=O)N[C@@H](CC(N)=O)C(=O)N[C@@H](Cc1c[nH]c2ccccc12)C(=O)N[C@@H](CC(C)C)C(=O)N[C@@H](CC(C)C)C(=O)N[C@@H](C)C(=O)N[C@@H](CCC(N)=O)C(=O)N[C@@H](CCCCN)C(=O)N1CCC[C@H]1C(=O)N[C@@H](CO)C(=O)N[C@@H](CCCCN)C(=O)N[C@@H](CCC(=O)O)C(=O)N[C@H](C(=O)N[C@H](C(=O)N[C@@H](CO)C(N)=O)[C@@H](C)CC)[C@@H](C)CC)C(C)C)[C@@H](C)CC` [Compound 0601GIP4234]: the “OGTT/GL (%)” value in test [2] (350 nmol/kg) is −17%.

Regarding `CC[C@H](C)[C@H](NC(=O)[C@H](CO)NC(=O)[C@H](Cc1ccc(O)cc1)NC(=O)[C@H](CC(=O)O)NC(=O)[C@H](CO)NC(=O)[C@@H](NC(=O)[C@H](Cc1ccccc1)NC(=O)[C@@H](NC(=O)CNC(=O)[C@H](CCC(=O)O)NC(=O)[C@@H](C)NC(=O)[C@H](Cc1ccc(O)cc1)NC(=O)OCC(C)C)[C@@H](C)O)[C@@H](C)CC)C(=O)N[C@@H](C)C(=O)N[C@@H](CCSC)C(=O)N[C@@H](CC(=O)O)C(=O)N[C@@H](CCCCN)C(=O)N[C@H](C(=O)N[C@@H](Cc1c[nH]cn1)C(=O)N[C@@H](CCC(N)=O)C(=O)N[C@@H](CCC(N)=O)C(=O)N[C@@H](CC(=O)O)C(=O)N[C@@H](Cc1ccccc1)C(=O)N[C@H](C(=O)N[C@@H](CC(N)=O)C(=O)N[C@@H](Cc1c[nH]c2ccccc12)C(=O)N[C@@H](CC(C)C)C(=O)N[C@@H](CC(C)C)C(=O)N[C@@H](C)C(=O)N[C@@H](CCC(N)=O)C(=O)N[C@@H](CCCCN)C(=O)N1CCC[C@H]1C(=O)N[C@@H](CO)C(=O)N[C@@H](CO)C(=O)NCC(=O)N[C@@H](C)C(=O)N1CCC[C@H]1C(=O)N1CCC[C@H]1C(=O)N1CCC[C@H]1C(=O)N[C@@H](CO)C(N)=O)C(C)C)[C@@H](C)CC` [Compound 0601GIP4180], the “OGTT/GL (%)” value in test [2] (30 nmol/kg) is recorded as −11, 30%.

As to `CC[C@H](C)[C@H](NC(=O)[C@H](CCCCN)NC(=O)[C@H](CC(=O)O)NC(=O)[C@H](CCSC)NC(=O)[C@@H](NC(=O)[C@@H](NC(=O)[C@H](CO)NC(=O)[C@H](Cc1ccc(O)cc1)NC(=O)[C@H](CC(=O)O)NC(=O)[C@H](CO)NC(=O)[C@@H](NC(=O)[C@H](Cc1ccccc1)NC(=O)[C@@H](NC(=O)CNC(=O)[C@H](CCC(=O)O)NC(=O)[C@@H](C)NC(=O)[C@@H](N)Cc1ccc(O)cc1)[C@@H](C)O)[C@@H](C)CC)[C@@H](C)CC)[C@@H](C)O)C(=O)N[C@@H](Cc1c[nH]cn1)C(=O)N[C@@H](CCC(N)=O)C(=O)N[C@@H](CCC(N)=O)C(=O)N[C@@H](CC(=O)O)C(=O)N[C@@H](Cc1ccccc1)C(=O)N[C@H](C(=O)N[C@@H](CC(N)=O)C(=O)N[C@@H](Cc1c[nH]c2ccccc12)C(=O)N[C@@H](CC(C)C)C(=O)N[C@@H](CC(C)C)C(=O)N[C@@H](C)C(=O)N[C@@H](CCC(N)=O)C(=O)N[C@@H](CCCCN)C(=O)N1CCC[C@H]1C(=O)N[C@@H](CO)C(=O)N[C@@H](CO)C(=O)NCC(=O)N[C@@H](C)C(=O)N1CCC[C@H]1C(=O)N1CCC[C@H]1C(=O)N1CCC[C@H]1C(=O)N[C@@H](CO)C(N)=O)C(C)C` [Compound 0601GIP4213], the “OGTT/GL (%)” value in test [2] (350 nmol/kg) was −17%.
